Measurements reported in patent US20260306525A1, “COMBINATION THERAPY GLUCOCORTICOIDS AND GINSENOSIDE” (FYTAGORAS B.V., priority 2023, published 2026).

Experiments:
GILZ = test: qPCR GILZ expression in HeLa cells (GR transactivation); assay type: cell-based, human; settings: beclomethasone 1 μM, Rg1 50 μM or combination
Procedure: (§1) HeLa (human cervical cancer) cells were cultured in Dulbecco's Modified Eagle's (DMEM) High Glucose (HG) medium without phenol red supplemented with 10% Fetal Calf Serum (FCS) and 10% Glutamax (Sigma-Aldrich). The cells were maintained at 37° C. and 5% CO2. At 24 h before adding the treatment, the medium was replaced by DMEM HG with 10% charcoal-inactivated serum and 10% Glutamax (Sigma-Aldrich). The cells were exposed to short- and long-term compound treatments. […] Subsequently, TNF-α (10 ng/ml) was added along with the compound treatments for 6 h (this last step was not added in the actinomycin-D and cycloheximide experiments).
(§2) To determine levels of gene expression in zebrafish larvae, 3 dpf larvae were used in both wounded and non-wounded conditions, and after short- and long-term treatments. Groups of 15 larvae were collected in TRIzol reagent (ThermoFisher) and total RNA was isolated using miRNeasy mini kit (Qiagen, Hilden, Germany). For experiments in HeLa cells, cells were seeded in 6 well plates and after treatment, the cells were removed from the wells using TRIzol reagent and mRNA was isolated using miRNeasy mini kit (Qiagen) according to the manufacturer's instructions. The RNA samples were DNAse-treated utilizing the DNA-free™ DNA Removal Kit (ThermoFisher Scientific). The cDNA synthesis was performed using the iScript cDNA synthesis kit (Bio-Rad Laboratories, Hercules, CA, USA) using 1 μg of RNA per sample. For qPCR, 10 μM of forward primer and 10 μM of reverse primer, 12.5 μl of IQ SYBR Green Supermix (Bio-Rad Laboratories), and 2 μl of cDNA were added to the qPCR reaction mixture. […] The qPCR reactions were performed on a MyiQ-single-color real-time PCR detection system (Bio-Rad Laboratories), with initial denaturation for 3 min, 95° C., and 40 cycles of 15 s at 95.5° C., 15 s at 60° C., and 30 s at 72° C. Cycle threshold values (Ct values, i.e. the cycle numbers at which a threshold value of the fluorescence intensity was reached) were determined for each sample. The gene expression level for each sample was normalized using the expression of ppial (peptidylprolyl isomerase Ab (cyclophilin A)) for zebrafish samples, and 18S rRNA for human cells. The fold change per sample (compared to the respective control group) was calculated using the […]Ct method.

IL8 = test: qPCR IL8 expression in TNF-α-treated HeLa cells; assay type: cell-based, human; settings: for IL8 expression (TNF-α induced): 0.01 μM beclomethasone, 20 μM Rg1 or combination; for IL8 expression, long-term: 30 h
Procedure: as §1, §2

GR protein = test: western blot GR protein level in HeLa cells; assay type: cell-based, human; settings: for GR protein level, short-term: 6 h; for GR protein level, short-term / GR protein level, long-term: beclomethasone 1 μM, Rg1 20 μM or combination; for GR protein level, long-term: 24 h; for GR protein level in presence of cycloheximide (protein stability): long-term, with cycloheximide (5 μg/ml)
Procedure: as §1
Western blots were conducted to determine GR protein levels in HeLa cells. The cells were seeded as described previously in 6-well plates. The cells were exposed to short- and long-term compound treatments. […] Cells were harvested using trypsin (0.25% (v/v) trypsin in PBS, no EDTA), washed twice with PBS, and centrifuged. After centrifuging for 3 min at 3,000 rpm, cell pellets were stored at −80° C. until use. Cells were homogenized in potassium phosphate (KPi lysis buffer; 25 mM K2HPO4—KH2PO4 (pH 6.5)+0.1% (v/v) Triton X-100 (Merck, Darmstadt, Germany)) by sonication (20% amplitude, 3 s on, 3 s off for 4 cycles), using a Vibra-Cell™ VCX 130 sonicator (Sonics, Newtown, CT, USA), while on ice. The total protein concentration of the homogenates was determined using the Quickstart Bradford protein assay (Bio-Rad Laboratories) and measured using an EMax® plus microplate reader (Molecular Devices, Sunnyvale, CA, USA). HeLa cell homogenates (30 μg protein in 10 μl) were added to 30 μl Laemmli sample buffer, vortexed, and, boiled for 5 min at 98° C. Of each sample, 15 μl was loaded in duplicate on a 12% gradient precast SDS-PAGE gel (Bio-Rad Laboratories), and run for approximately 2 h at 90 V (no duplicates were used in the cycloheximide experiment). The experiments were performed 4 times (6 times for the cycloheximide experiment). After running the gel, proteins were transferred to a nitrocellulose membrane (Thermo Fisher Scientific) by using Bio-Rad Power Pac Basic Mini Electrophoresis System at 100 V for 1 h. The blot was washed in a blocking buffer (Tris-buffered saline containing 0.1% Tween-20 (TBST) with 3% BSA) 3 times for 15 min at room temperature. A primary GR antibody (Glucocorticoid Receptor Recombinant Rabbit Monoclonal Antibody (2D8, ThermoFisher Scientific)) at a 1:500 dilution in TBST with 3% BSA was added to the blots and incubated overnight at 4° C. The next day, the blot was washed with TBST 3 times for 5 min. Then, an HRP-conjugated anti-rabbit secondary antibody (Sigma-Aldrich) at 1:2000 dilution in TBST with 3% BSA was added and incubated at room temperature for 2 h. The blot was washed 3 times for 5 min in TBST with 3% BSA and twice for 5 min with TBST. The blot was incubated with 10 ml of Pierce™ enhanced chemiluminescence (ECL) western blotting substrate (ThermoFisher Scientific) for 1-2 min. Chemiluminescence was detected using a ChemiDoc MP imager (Bio-Rad Laboratories) at an exposure time of 1 min. The blot was washed 3 times for 5 min in TBST, then washed for 1 h in TBST with 3% BSA. A β-actin antibody (MA1-91399, ThermoFisher Scientific) was added at a 1:2000 dilution in TBST with 3% BSA to the blot and incubated overnight at 4° C. The next day, the blot was washed 3 times for 5 min in TBST with 3% BSA. Then, an HRP-conjugated anti-mouse secondary antibody (Sigma-Aldrich) at a 1:2000 dilution in TBST with 3% BSA was added and incubated at room temperature for 2 h. Subsequently, the blot was washed 3 times for 5 min in TBST. The blot was incubated with 10 ml of ECL substrate for 1-2 min, and chemiluminescence was visualized. The intensities of the GR and β-actin bands were quantified using ImageJ software, and the GR level was normalized to the level of β-actin.

FKBP5 = test: qPCR FKBP5 expression in HeLa cells (GR transactivation); assay type: cell-based, human; settings: beclomethasone 1 μM, Rg1 50 μM or combination
Procedure: as §1, §2

zebrafish embryos = test: Fish Embryo Acute Toxicity Test (FET); settings: 0-120 hpf
Procedure: Fish Embryo Acute Toxicity Test (FET) was performed to determine the tolerated doses of the studied compounds. […] A range of three test concentrations (100, 120, and 150 μM) of Rg1, Rh1, and F1 and (25, 50, and 75M) of PPT was used. […] Stock solutions were made in DMSO, and final dilutions in egg water (60 μg/mL Instant Ocean Sea salts and 0.0025% methylene blue), such that the final DMSO concentration were 0.01%. The following controls were used: a negative control (nC, egg water), a solvent control (sC, 0.01% DMSO in egg water), and positive control (pC), 4 mg/L 3,4-dichloroaniline (Sigma-Aldrich, St. Louis, MO, USA) in egg water.
Embryos were collected around at 1.5 hpf and distributed over standard twenty-four well plates (10 embryos per well), with each well containing 2 mL of test solution. […] Five 24-well plates were prepared, each with 3 wells containing the Rg1, F1, or Rh1 solutions (100, 120, 150 μM), 3 wells containing the PPT (25, 50, and 75 μM), two for nC and sC, and one for pC (on each plate, 7 wells remained empty). All solutions were refreshed daily.
The plates were kept at a temperature between 26 and 27° C. and exposed to a 12 h light and 12 h dark cycle. At 96, and 120 hpf, the average survival rate (in %) for all experimental groups was determined. Additionally, hatching was recorded at 48 and 72 hpf. Survival rates for the studied compound and pC-treated groups from the five individual plates were averaged.

[1] = beclomethasone 1 μM, Rg1 20 μM or combination

SMILES	GILZ expression, long-term (GILZ)	GILZ expression, short-term (GILZ)	IL8 expression (TNF-α induced) (IL8; 6 h)	IL8 expression, short-term (IL8; beclomethasone 1 μM, Rg1 20 μM or combination, 6 h)	IL8 expression, long-term (IL8; [1])	GR protein level, short-term (GR protein)	GR protein level, long-term (GR protein)	GR protein level in presence of cycloheximide (protein stability) (GR protein)	FKBP5 expression, long-term (FKBP5)	FKBP5 expression, short-term (FKBP5)	concentration until which no effects on hatching and survival were observed (zebrafish embryos) [µM]	concentration with minimal effects on hatching and survival (zebrafish embryos) [µM]
CC(C)=CCC[C@](C)(O[C@@H]1O[C@H](CO)[C@@H](O)[C@H](O)[C@H]1O)[C@H]1CC[C@]2(C)[C@@H]1[C@H](O)C[C@@H]1[C@@]3(C)CC[C@H](O)C(C)(C)[C@@H]3[C@@H](O[C@@H]3O[C@H](CO)[C@@H](O)[C@H](O)[C@H]3O)C[C@]12C [Rg1, (3β,6α, 12β)-3,12-Dihydroxydammar-24-ene-6,20-diyl bis-β-D-glucopyranoside]	did not affect the expression of these genes	did not affect the expression of these genes	slightly suppressed	slightly suppressed	more strongly after long-term treatment	did not affect the GR mRNA or GR protein level	did not affect the GR mRNA or GR protein level	protein stability is affected in a similar way as the mRNA levels by beclomethasone, and not Rg1	did not affect the expression of these genes	did not affect the expression of these genes	100	120
CC(C)=CCC[C@](C)(O)[C@H]1CC[C@]2(C)[C@@H]1[C@H](O)C[C@@H]1[C@@]3(C)CC[C@H](O)C(C)(C)[C@@H]3[C@@H](O[C@@H]3O[C@H](CO)[C@@H](O)[C@H](O)[C@H]3O)C[C@]12C [Rh1]	–	–	–	–	–	–	–	–	–	–	100	120
C[C@H]1C[C@H]2[C@@H]3CCC4=CC(=O)C=C[C@]4(C)[C@@]3(Cl)[C@@H](O)C[C@]2(C)[C@@]1(O)C(=O)CO [beclomethasone, reference compound]	reduced over time	strongly increased the expression of these genes after short-term treatment	slightly suppressed	–	the suppressive effects of beclomethasone were significantly reduced after long-term treatment	inhibited the expression of GR at both the mRNA and protein level	this inhibitory effect increased over time	protein stability is affected in a similar way as the mRNA levels by beclomethasone, and not Rg1	increased over time	strongly increased the expression of these genes after short-term treatment	–	–
